# Source: ChEMBL document CHEMBL6153050, “Repurposing FDA-approved drugs to target G-quadruplexes in breast cancer” (Eur J Med Chem, 2025)
# The source made the active and inactive calls. The calls are words filed in the database; no cut-off is given here.
# Key:
# Quadruplex RNA [1] = conditions: time 10.0 min
# Quadruplex DNA [2] = conditions: time 10.0 min
# Quadruplex DNA [3] = conditions: time 10.0 min; remark: listed apart in the source
# Quadruplex DNA [4] = conditions: time 10.0 min; remark: listed apart in the source
# Quadruplex RNA [5] = conditions: time 10.0 min; remark: listed apart in the source
# Quadruplex DNA [6] = conditions: time 10.0 min; remark: listed apart in the source
# MCF7 = test: Cytotoxicity against human MCF7 cells assessed as reduction in cell viability at 0.625 to 20 uM incubated for 6 days by SRB assay; assay type: functional, cell-based; conditions: dose 0.625-20 µM, time 6.0 day
deltaTm1/2 (Quadruplex RNA [1]) [°C],deltaTm1/2 (Quadruplex DNA [2]) [°C],deltaTm1/2 (Quadruplex DNA [3]) [°C],deltaTm1/2 (Quadruplex DNA [4]) [°C],deltaTm1/2 (Quadruplex RNA [5]) [°C],deltaTm1/2 (Quadruplex DNA [6]) [°C],Compound,Activity (MCF7)
3.2,4.4,2.8,5.4,1,0.2,CCCCOc1cc(C(=O)NCCN(CC)CC)c2ccccc2n1,–
> 20,18.5,> 20,> 20,15.4,> 20,CCN(CC)CCCC(C)Nc1c2ccc(Cl)cc2nc2ccc(OC)cc12 (stereo not given),–
4.6,-3.3,-1.1,2.5,1.1,0,CCc1cc2c(cc1N1CCC(N3CCOCC3)CC1)C(C)(C)c1[nH]c3cc(C#N)ccc3c1C2=O,–
9.8,4.5,1,8,3.3,4.6,CCn1cc(C(=O)O)c(=O)c2cc(F)c(N3CCN(C)CC3)cc21,–
5.1,3,1.1,8.4,0.3,2.5,CN(C)CCCOc1nn(Cc2ccccc2)c2ccccc12,–
4.5,5.2,4,6,0.8,0.6,CN1CCC[C@@H]1Cc1c[nH]c2ccc(CCS(=O)(=O)c3ccccc3)cc12,Active
9.7,1.9,4.3,9.8,-0.2,2.4,CONC(=O)Nc1ccc(-c2sc3c(c2CN(C)C)c(=O)n(-c2ccc(OC)nn2)c(=O)n3Cc2c(F)cccc2F)cc1,–
2.6,4.5,-0.7,1.4,-0.3,-0.4,COc1c(-c2ccc3cc(NS(C)(=O)=O)ccc3c2)cc(-n2ccc(=O)[nH]c2=O)cc1C(C)(C)C,–
4.2,-2.6,3.7,3.6,0.3,0.4,COc1cc(NC(C)CCCN)c2ncccc2c1 (stereo not given),–
